From patent publication US7868011B2 (General Atomics, priority 2003, dated 2011)
pKi: −log10 of the molar value.

Legend:
[1] = system: primary antibody production in response to SRBC; test: Quantitative hemolysis of sheep red blood cells (QHS) assay; format: in vivo, Balb/c mice; settings: 7-day intraperitoneal injection
Procedure: Female Babl/c mice were immunized by intraperitoneal injection with 0.2 ml of 16.7% of SRBC on day 4. Vehicle, Dexamethasone and DZ2002 were administrated on each group (n=6) by intraperitoneal injection on 7 consecutive days of 1-7. On day 8, mice were sacrificed and made a mixed suspension of spleen cells of 2×10^6 cells/ml. 1 ml of cell suspension was incubated with 1 ml of 0.5% SRBC and 1 ml of 1:10 dilution of guinea pig complement for 1 h at 37° C., then centrifuged (3 min, 3000 g) and determined the supernatant hemolysis at 413 nm, according to Simpson et al., J. Immunol. Methods., 21(1-2):159-65. (1978) with some modifications. Each group was triplicated.

[2] = system: C57BL/6 spleen cells stimulated by mitomycin-treated Balb/c spleen cells; test: Mixed lymphocyte reaction (MLR) proliferation assay; format: cell-based, mouse; settings: 3-day culture
Procedure: Balb/c mouse spleen cells were prepared in 10^7 cells/ml suspension, cultured 2 h with 50 μg/ml of mitomycin. Then cells were washed and cultured together with fresh C57/B6 mice splenocytes equally in a final concentration of 1.0×10^6 cells/ml in the presence or absence of various concentrations of DZ2002. After 48 hour incubation, cells were pulsed with 0.5 μCi/well of [^3H]-thymidine and cultured for another 24 hours. The cells were then harvested onto glass fiber filters and the incorporated radioactivity was counted using a Beta Scintillator (MicroBeta Trilux, PerkinElmer Life Sciences).

[3] = system: Mouse splenic lymphocytes; test: MTT cytotoxicity assay of the splenic lymphocytes; format: cell-based; settings: 0.1-10 μmol/L, two days of culture
Procedure: Cytotoxicity was assessed with MTT assay. Mouse splenic lymphocytes were incubated in a 96-well plate at 9×10^4 cells/180 μl/well in a humidified CO2 incubator at 37° C. for 48 hours in the presence or absence of various concentrations of DZ2002. Fifteen (15) μl of 5 mg/ml of MTT was pulsed 4 h prior to end of the culture […], and then 80 μl solvent (10% SDS, 50% N,N-dimethy formamide, PH7.2) was added. Incubate for 7 h and read OD590 at a microplate reader (Bio-rad Model 550 Japan).

[4] = system: TG induced peritoneal macrophages; test: cytokine production from TG induced peritoneal macrophages (ELISA); format: cell-based, BALB/C mice; settings: IFN-γ and LPS 24 h, 0.1-10 μmol/L
Procedure: Peritoneal exudate cells were induced in BALB/C mice by an intraperitoneal injection of 0.5 ml of 3% TG. After 4 days, the peritoneal exudates cells were harvested by sterile lavage.
Murine peritoneal exudate cells (6.25×10^5) were cultured in 24-well plates in a volume of 1 ml/well for 2 hours. In adherent cells were washed by ice cold RPMI 1640 and adherent cells were culture in a volume of 2 ml/well in the presence of IFN-γ (2.5 ng/ml) and LPS (1 μg/ml) in the presence or absence of various concentrations of DZ2002. After 24 h, cell-free supernatant was collected and frozen at −20° C. The concentrations of IL-12p40, IL-12p70, IL-10 and TNF-α were determined by ELISA.
Cytokines produced by peritoneal macrophages were assessed following a 24-h incubation with IFN-γ at 25 U/ml and LPS at 1 μg/ml. Resident peritoneal cells produce low levers of cytokines except for some IL-10 with incubated with IFN-γ and LPS (data not shown). As for TG induced peritoneal macrophages, DZ2002 inhibited IL-12P40 and TNF-α release, but have no effect on IL-10 production in the dose of 0.1-10 μmol/L (FIG. 5).

[5] = system: lupus-prone MRL-Fas^lpr mice; test: survival of lupus-prone MRL-Fas lpr mice; format: in vivo, mouse; settings: 50 mg/kg/day i.p.
Procedure: MRL-Fas^lpr female mice were provided by The Jackson Laboratory (Bar Harbor, Me.). The mice were housed in specific pathogen-free (SPF) conditions with room temperature of 24±2° C., 12 hr light/dark cycle, and provided with sterile food and water ad libitum. Starting at approximately 6 weeks of age, MRL-Fas^lpr mice (n=11-13/group) were dosed i.p. every day with either DZ2002 (50 mg/kg/day) or with vehicle (0.4% DMSO/PBS) for ˜9 months and followed for survival. Mouse survival data were analyzed by the Kaplan-Meir method with comparison by the log-rank test; p<0.05 was considered to be significant.

SAH hydrolase = SAH hydrolase (Rattus norvegicus, UniProt P10760); settings: cited from earlier work
SAH hydrolase, sequence (P10760 whole entry): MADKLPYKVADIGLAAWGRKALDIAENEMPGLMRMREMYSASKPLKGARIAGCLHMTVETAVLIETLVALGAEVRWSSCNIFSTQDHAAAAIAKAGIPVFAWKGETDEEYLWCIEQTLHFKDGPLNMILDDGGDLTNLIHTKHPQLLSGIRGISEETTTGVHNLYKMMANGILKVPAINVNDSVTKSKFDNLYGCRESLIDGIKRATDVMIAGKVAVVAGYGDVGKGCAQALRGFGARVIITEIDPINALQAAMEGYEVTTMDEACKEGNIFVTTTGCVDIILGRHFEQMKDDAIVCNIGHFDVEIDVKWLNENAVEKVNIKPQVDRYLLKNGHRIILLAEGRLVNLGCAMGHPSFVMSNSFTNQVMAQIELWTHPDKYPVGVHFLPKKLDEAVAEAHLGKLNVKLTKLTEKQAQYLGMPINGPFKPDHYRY

[6] = target: intracellular AdoHcy hydrolase (Rattus norvegicus, UniProt P10760); settings: intracellular enzyme; cited from earlier work
intracellular AdoHcy hydrolase, sequence (P10760 whole entry): as above

COC(=O)C(O)CCn1cnc2c(N)ncnc21 (stereo not drawn) [DZ2002, Methyl 4-(Adenin-9-yl)-2-hydroxybutanoate]
inhibition of QHS ([1]; 0.08 mg/kg): 24.5% | inhibition of QHS ([1]; 2 mg/kg): 18.4% | suppression of MLR ([2]; 0.1 μmol/L): 40.2% | suppression of MLR ([2]; 1 μmol/L): 36.9% | suppression of MLR ([2]; 10 μmol/L): 42.3% | cytotoxicity to spleen cells (MTT, OD) [3]: no cytotoxicity | IL-10 production [4]: no effect | age at which extension in survival was first observed [5]: approximately 160 days of age

C[C@@H]1C[C@H]2[C@@H]3CCC4=CC(=O)C=C[C@]4(C)[C@@]3(F)[C@@H](O)C[C@]2(C)[C@@]1(O)C(=O)CO [Dethamethasone, reference compound]
inhibition of QHS ([1]; 5 mg/kg): 38.1%

Nc1ncnc2c1ncn2C[C@H](O)CO [(S)-DHPA, (S)-9-(2,3-dihydroxypropyl)adenine]
type of inhibition of isolated AdoHcy hydrolase (SAH hydrolase; isolated enzyme): reversible inhibitor | pKi (SAH hydrolase; read-out: Ki value against SAH hydrolase): 5.46 | type of inhibition of intracellular AdoHcy hydrolase [6]: irreversible inhibitor
